System: PIK (PI4K; phosphatidylinositol 4-kinase)
Assay: radiometric PtdInsP formation from […]-ATP, Lineweaver-Burk
Format: biochemical, Mus musculus
Details: co-substrate 32P-ATP; 25 °C; 10 min; cell homogenate; without added c-Fos

Km: 254 µM
Substance: PtdIns
